Assay results as given in PMC7933316 (2021).
Blank lines part the entries; values can stand above or below the compound they belong to.

How the values were obtained:
Assay in all cases: SPR (equilibrium)
[1] = test system: Nosc-441 (full length, G12A, SPR form) (RNA, ribozyme) GGGAAACAAACAAAGCUGUCACCGGAAGAACUGACAUUUGCAACGUCAUGUGCGAUGUCCAACGUGUAGCCACCUAGGCGUACAGAUCCGGUCUGAUGAGUCCUCGAUGGACAAAACAGCAAAAAAAAAAAAAAAAAAAAAAAA; conditions: Na+ (1.5 M NaCl [sic]), Mg2+ 0.5 mM; HBS-N (0.1 M HEPES [sic]), pH 7.4
[2] = test system: Nosc-441 large stem loop (RNA, aptamer) GGGACCGGAAGAACUGACAUUUGCAACGUCAUGUGCGAUGUCCAACGUGUAGCCACCUAGGCGUACAGAUCCGGUCCCCAAAAAAAAAAAAAAAAAAAAAAAA; conditions: Na+ (1.5 M NaCl [sic]), Mg2+ 0.5 mM; HBS-N (0.1 M HEPES [sic]), pH 7.4
[3] = test system: Nosc-786 (full length, G12A, SPR form) (RNA, ribozyme) GGGAAACAAACAAAGCUGUCACCGGAAGAACUUACAUUUGCAACGUCAUGUGCGAUGUCCAACGUGUAGCCACCUAGGCGUACAGAUCCGGUCCGAUGAGUCCUCGAUGGACAAAACAGCAAAAAAAAAAAAAAAAAAAAAAAA; conditions: Na+ (1.5 M NaCl [sic]), Mg2+ 0.5 mM; HBS-N (0.1 M HEPES [sic]), pH 7.4
[4] = test system: SRet-760 (full length, G12A, SPR form) (RNA, ribozyme) GGGAAACAAACAAAGCUGUCACUGGACCCUAACAUUCCAGUCUGAUGAGUCCUAUAGGCACGCUUCCCCCAGGUGUAGGGAGGACAAAACAGCAAAAAAAAAAAAAAAAAAAAAAAA; conditions: Na+ (1.5 M NaCl [sic]), Mg2+ 0.5 mM; HBS-N (0.1 M HEPES [sic]), pH 7.4
[5] = test system: SRet-760 large stem loop (T7_SRet760_polyA) (RNA, aptamer) GGGGUCCUAUAGGCACGCUUCCCCCAGGUGUAGGGAGGACCCCCAAAAAAAAAAAAAAAAAAAAAAAA; conditions: Na+ (1.5 M NaCl [sic]), Mg2+ 0.5 mM; HBS-N (0.1 M HEPES [sic]), pH 7.4
[6] = test system: SRet-584 (full length, G12A, SPR form) (RNA, ribozyme) GGGAAACAAACAAAGCUGUCACUGGACGCAAAAAUUCCAGUCUGAUGAGUCCAUAAUGAGCAACAACACGAUUCCUCAUGCGGGACAAAACAGCAAAAAAAAAAAAAAAAAAAAAAAA; conditions: Na+ (1.5 M NaCl [sic]), Mg2+ 0.5 mM; HBS-N (0.1 M HEPES [sic]), pH 7.4
[7] = test system: Gard-547 (full length, G12A, SPR form) (RNA, ribozyme) GGGAAACAAACAAAGCUGUCACCGGAAUAGUCGAUGGGUGCUACAUAGCGCCGGAAUCCAGUCUGAUGAGUCUCUCGGCAGGACAAAACAGCAAAAAAAAAAAAAAAAAAAAAAAA; conditions: Na+ (1.5 M NaCl [sic]), Mg2+ 0.5 mM; HBS-N (0.1 M HEPES [sic]), pH 7.4; no replicates
[8] = test system: Acic-145 (full length, G12A, SPR form) (RNA, ribozyme) GGGAAACAAACAAAGCUGUCACCGGAAUAACCGAAGUAGUUUAUGGGCUACCGAAAUCCGGUCUGAUGAGUCCUCGGGGUGGACAAAACAGCAAAAAAAAAAAAAAAAAA; conditions: Na+ (1.5 M NaCl [sic]), Mg2+ 0.5 mM; HBS-N (0.1 M HEPES [sic]), pH 7.4
[9] = test system: Acic-145 large stem loop (T7_acic145_polyA) (RNA, aptamer) GGGACCGGAAUAACCGAAGUAGUUUAUGGGCUACCGAAAUCCGGUCCCCAAAAAAAAAAAAAAAAAAAAAAAA; conditions: Na+ (1.5 M NaCl [sic]), Mg2+ 0.5 mM; HBS-N (0.1 M HEPES [sic]), pH 7.4
[10] = test system: TZea-579 (full length, G12A, SPR form) (RNA, ribozyme) GGGAAACAAACAAAGCUGUCACCGGGUAGAACAGAAUGCAAGUGCGUAGAAGCGCCUCCGGUCUGACGAGUCCUUAGCACGGACAAAACAGCAAAAAAAAAAAAAAAAAAAAAAAA; conditions: Na+ (1.5 M NaCl [sic]), Mg2+ 0.5 mM; HBS-N (0.1 M HEPES [sic]), pH 7.4
[11] = test system: TZea-579 large stem loop (RNA, aptamer) GGGACCGGGUAGAACAGAAUGCAAGUGCGUAGAAGCGCCUCCGGUCCCCAAAAAAAAAAAAAAAAAAAAAAAA; conditions: Na+ (1.5 M NaCl [sic]), Mg2+ 0.5 mM; HBS-N (0.1 M HEPES [sic]), pH 7.4
[12] = test system: TZea-927 (full length, G12A, SPR form) (RNA, ribozyme) GGGAAACAAACAAAGCUGUCACCGGAAACUGGAUCUGGUCUGAUGAGUCCCUCCAUGCGACCCAGUGUGAUACGUGGACAGGACAAAACAGCAAAAAAAAAAAAAAAAAAAAAAAA; conditions: Na+ (1.5 M NaCl [sic]), Mg2+ 0.5 mM; HBS-N (0.1 M HEPES [sic]), pH 7.4
[13] = test system: TZea-927 large stem loop (T7_zea927_polyA) (RNA, aptamer) GGGGUCCCUCCAUGCGACCCAGUGUGAUACGUGGACAGGACCCCCAAAAAAAAAAAAAAAAAAAAAAAA; conditions: Na+ (1.5 M NaCl [sic]), Mg2+ 0.5 mM; HBS-N (0.1 M HEPES [sic]), pH 7.4
[14] = test system: Theo-421 (full length, G12A, SPR form) (RNA, ribozyme) GGGAAACAAACAAAGCUGUCACCGGAAUGUGAGUCCGGUCUGAUGAGUCCCUCAUGUGCCUUCCAGCGGUACGAUACUCAGGACAAAACAGCAAAAAAAAAAAAAAAAAAAAAAAA; conditions: Na+ (1.5 M NaCl [sic]), Mg2+ 0.5 mM; HBS-N (0.1 M HEPES [sic]), pH 7.4
[15] = test system: Theo-421 truncation, minimum free energy structure (T7_theo421_polyA_MFE) (RNA, aptamer) GGGGUCCCUCAUGUGCCUUCCAGCGGUACGAUACUCAGGACCCCCAAAAAAAAAAAAAAAAAAAAAAAA; conditions: Na+ (1.5 M NaCl [sic]), Mg2+ 0.5 mM; HBS-N (0.1 M HEPES [sic]), pH 7.4
[16] = test system: Theo-421 truncation, 1st suboptimal structure (T7_theo421_polyA_subopt1) (RNA, aptamer) GGGUGAGUCCCUCAUGUGCCUUCCAGCGGUACGAUACUCACCCCAAAAAAAAAAAAAAAAAAAAAAAA; conditions: Na+ (1.5 M NaCl [sic]), Mg2+ 0.5 mM; HBS-N (0.1 M HEPES [sic]), pH 7.4

KD [1]: 13 ± 2 µM | KD [2]: 20 ± 7 µM | Equilibrium KD [3]: 28.7 µM
SMILES: COc1ccc2c(c1OC)C(=O)O[C@@H]2[C@H]1c2c(cc3c(c2OC)OCO3)CCN1C

KD [4]: 0.15 ± 0.01 µM | binding [5]: no | Equilibrium KD [6]: 0.465 µM
SMILES: COc1ccc(C[C@H]2c3cc(O)c(OC)cc3CCN2C)cc1O

KD [7]: 0.0101 µM
SMILES: CCNCc1nc2c(N)nc3ccccc3c2n1CC(C)(C)O

KD [8]: 1.5 ± 0.3 µM | KD [9]: 0.700 ± 0.004 µM
SMILES: Nc1nc2c(ncn2COCCO)c(=O)[nH]1

KD [10]: 3.1 ± 0.5 µM | KD [11]: 37 ± 3 µM | KD [12]: 62 ± 20 µM | binding [13]: no
SMILES: C/C(=C\CNc1ncnc2[nH]cnc12)CO

KD [14]: 68 ± 20 µM | binding [15]: no | KD [16]: 17.0 ± 0.7 µM
SMILES: Cn1c(=O)c2[nH]cnc2n(C)c1=O
